# Measured values: patent US20240300991A1, “NUCLEOSIDE DERIVATIVE HAVING MULTI-TARGET KINASE INHIBITORY ACTIVITY AND PHARMACEUTICAL COMPOSITION FOR PREVENTING AND TREATING CANCER COMPRISING SAME” (FUTURE MEDICINE CO., LTD., priority 2021, published 2024)
# Assays:
# CSNK1D = biological target: T1, CSNK1D (Homo sapiens, UniProt P48730); assay: Kinase inhibition test (DNA-tagged kinase, affinity resin, qPCR readout); assay type: binding; set-up: key: (−) indicates no effect; (+) indicates weak inhibitory activity; (++) indicates a moderate level of inhibitory activity; (+++) indicates strong inhibitory activity; conditions: 1 μM of compound
# T1 construct: made in house
# T1 sequence (P48730 whole entry): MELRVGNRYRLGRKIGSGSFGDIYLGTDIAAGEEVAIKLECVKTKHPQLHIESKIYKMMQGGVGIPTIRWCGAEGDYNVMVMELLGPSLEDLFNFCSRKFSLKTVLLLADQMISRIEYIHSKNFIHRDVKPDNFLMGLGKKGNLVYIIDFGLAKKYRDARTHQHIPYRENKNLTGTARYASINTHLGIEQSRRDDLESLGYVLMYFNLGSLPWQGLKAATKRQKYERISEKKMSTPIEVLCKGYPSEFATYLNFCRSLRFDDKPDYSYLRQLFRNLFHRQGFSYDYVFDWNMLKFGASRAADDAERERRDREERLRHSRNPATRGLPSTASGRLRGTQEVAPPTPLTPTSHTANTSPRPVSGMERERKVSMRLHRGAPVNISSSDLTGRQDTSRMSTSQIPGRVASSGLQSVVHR
# From the text: (§1) In order to examine the inhibitory activity of the nucleoside derivatives of the present invention synthesized in the Preparation Examples against kinases, the nucleoside derivatives were confirmed to have inhibitory activity against neurotrophic tyrosine kinase receptor type 1 or tropomyosin receptor kinase A (NTRK1), casein kinase 1 isoform delta (CSNK1D), dual specificity tyrosine-phosphorylation-regulated kinase 1A (DYRK1A), dual specificity tyrosine-phosphorylation-regulated kinase 1B (DYRK1B) and receptor-type tyrosine-protein kinase or fms like tyrosine kinase 3 or cluster of differentiation antigen 135 (CD135) or fetal liver kinase-2 (Flk2) (FLT3).
# (§2) The inhibition measurement method is as follows. Most of the kinases were produced by culturing a phage in which BL21 E. coli was tagged with a kinase at 32° C. until lysis, followed by centrifugation and filtration. Further, the kinases were produced using HEK-293 cells. Thereafter, the kinases were DNA tagged for qPCR. After an affinity resin was prepared by stirring a biotin-tagged substrate onto streptavidin-coated beads for 30 minutes, a non-specifically bound substrate was washed with a buffer (SeaBlock (Pierce), 1% BSA, 0.05% Tween 20, 1 mM DTT).
# (§3) For a kinase test, the kinase, the substrate, the affinity resin, and a test material dissolved in dimethyl sulfoxide were stirred together in a buffer (20% SeaBlock, 0.17×PBS, 0.05% Tween20, and 6 mM DTT) at room temperature for 1 hour. Thereafter, an affinity substrate was washed with a buffer (1×PBS, 0.05% Tween20), and then suspended in an elution buffer (1×PBS, 0.05% Tween20, 0.5 μM non-biotinylated affinity ligand), and the resulting suspension was stirred. The concentration of the kinase was quantified by qPCR.
# DYRK1A = biological target: T2, DYRK1A (Homo sapiens, UniProt Q13627); assay: as above; assay type: binding; set-up: key: (−) indicates no effect; (+) indicates weak inhibitory activity; (++) indicates a moderate level of inhibitory activity; (+++) indicates strong inhibitory activity; conditions: 1 μM of compound
# T2 construct: made in house
# From the text: as §1, §2, §3
# DYRK1B = biological target: T3, DYRK1B (Homo sapiens, UniProt Q9Y463); assay: as above; assay type: binding; set-up: key: (−) indicates no effect; (+) indicates weak inhibitory activity; (++) indicates a moderate level of inhibitory activity; (+++) indicates strong inhibitory activity; conditions: 1 μM of compound
# T3 construct: made in house
# T3 sequence (Q9Y463 whole entry): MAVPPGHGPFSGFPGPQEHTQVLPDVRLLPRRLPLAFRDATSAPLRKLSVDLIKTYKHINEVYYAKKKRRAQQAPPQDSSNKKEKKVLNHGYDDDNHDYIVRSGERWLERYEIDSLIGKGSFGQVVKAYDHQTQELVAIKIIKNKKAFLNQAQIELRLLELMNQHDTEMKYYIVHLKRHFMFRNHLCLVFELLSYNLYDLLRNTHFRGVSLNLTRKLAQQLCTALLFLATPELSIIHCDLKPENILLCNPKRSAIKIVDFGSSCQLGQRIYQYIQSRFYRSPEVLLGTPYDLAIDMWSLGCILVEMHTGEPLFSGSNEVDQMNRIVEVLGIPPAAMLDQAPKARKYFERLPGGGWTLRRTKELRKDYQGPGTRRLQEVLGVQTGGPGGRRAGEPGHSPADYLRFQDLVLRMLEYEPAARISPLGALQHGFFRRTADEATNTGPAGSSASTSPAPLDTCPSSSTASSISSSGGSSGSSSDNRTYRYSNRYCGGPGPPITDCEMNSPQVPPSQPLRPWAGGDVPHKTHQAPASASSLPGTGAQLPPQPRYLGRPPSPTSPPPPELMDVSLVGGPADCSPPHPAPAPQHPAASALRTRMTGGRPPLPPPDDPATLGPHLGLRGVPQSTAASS
# From the text: as §1, §2, §3
# NTRK1 = biological target: T4, NTRK1 (Homo sapiens, UniProt P04629); assay: as above; assay type: binding; set-up: key: (−) indicates no effect; (+) indicates weak inhibitory activity; (++) indicates a moderate level of inhibitory activity; (+++) indicates strong inhibitory activity; conditions: 1 μM of compound
# T4 construct: made in house
# T4 sequence (P04629 33-796): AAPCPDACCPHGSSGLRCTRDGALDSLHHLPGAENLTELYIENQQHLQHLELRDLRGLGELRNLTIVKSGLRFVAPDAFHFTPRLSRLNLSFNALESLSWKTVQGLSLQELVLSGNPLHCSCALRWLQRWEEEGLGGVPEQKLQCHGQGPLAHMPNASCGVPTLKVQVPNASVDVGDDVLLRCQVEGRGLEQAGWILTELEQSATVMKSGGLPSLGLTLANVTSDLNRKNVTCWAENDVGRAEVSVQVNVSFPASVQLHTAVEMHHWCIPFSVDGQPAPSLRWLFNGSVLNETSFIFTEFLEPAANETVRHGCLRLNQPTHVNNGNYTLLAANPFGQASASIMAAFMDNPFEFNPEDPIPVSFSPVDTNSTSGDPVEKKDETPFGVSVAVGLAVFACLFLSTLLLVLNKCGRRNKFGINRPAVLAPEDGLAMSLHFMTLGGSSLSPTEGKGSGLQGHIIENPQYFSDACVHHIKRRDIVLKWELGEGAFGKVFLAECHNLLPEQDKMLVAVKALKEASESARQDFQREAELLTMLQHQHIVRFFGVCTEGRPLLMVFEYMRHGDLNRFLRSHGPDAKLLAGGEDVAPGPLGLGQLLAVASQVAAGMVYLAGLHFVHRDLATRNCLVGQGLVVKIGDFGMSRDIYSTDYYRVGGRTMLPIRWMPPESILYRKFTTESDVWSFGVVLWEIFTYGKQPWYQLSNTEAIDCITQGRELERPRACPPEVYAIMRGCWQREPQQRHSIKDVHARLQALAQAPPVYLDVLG
# From the text: as §1, §2, §3
# A549 (lung cancer cells) = assay: Inhibitory activity against cancer cells (sulforhodamine B staining); assay type: cell-based; conditions: 3 days, SRB staining
# Procedure: (§4) In order to examine the anticancer activity of the nucleoside derivatives of the present invention synthesized in the Preparation Examples, the ICso of each of A549 (lung cancer cells), HCT116 (colon cancer cells), MDA-MB-231 (breast cancer cells), SK-Hep-1 (liver cancer cells), SNU638 (stomach cancer cells) and PC-3 (prostate cancer cells) against cancer cells was measured.
# (§5) The test method is as follows. Cells were allowed to stand for 1 day and set as a control on day 0. Further, after a test material was added to the cells, the cells were allowed to stand for 3 days. Thereafter, the cells were stained with 1% acetic acid and 0.4% sulforhodamine B. The stained cells were dried and dissolved in 10 mM Tris (pH 10.0). Absorbance was measured at 515 nm, and the degree of cell division was determined using the following equation. After calculation as Cell division (%)=(average absorbancetest material−average absorbanceday 0)/(average absorbance control-average absorbanceday 0)×100, the degree of cell division was calculated through a non-linear regression analysis using Table Curve 2D v5.01 (Systat Software Inc., San Jose, CA, USA).
# [1] = tested on: HCT116 (colon cancer cells); assay: as above; assay type: cell-based; conditions: 3 days, SRB staining
# Procedure: as §4, §5
# [2] = tested on: MDA-MB-231 (breast cancer cells); assay: as above; assay type: cell-based; conditions: 3 days, SRB staining
# Procedure: as §4, §5
# [3] = tested on: PC-3 (prostate cancer cells); assay: as above; assay type: cell-based; conditions: 3 days, SRB staining
# Procedure: as §4, §5
# [4] = tested on: SK-Hep-1 (liver cancer cells); assay: as above; assay type: cell-based; conditions: 3 days, SRB staining
# Procedure: as §4, §5
# [5] = tested on: SNU638 (stomach cancer cells); assay: as above; assay type: cell-based; conditions: 3 days, SRB staining
# Procedure: as §4, §5
Compound,CSNK1D inhibitory activity (CSNK1D),DYRK1A inhibitory activity (DYRK1A),DYRK1B inhibitory activity (DYRK1B),NTRK1 inhibitory activity (NTRK1),IC50 (A549 (lung cancer cells)) [µM],IC50 [1] [µM],IC50 [2] [µM],IC50 [3] [µM],IC50 [4] [µM],IC50 [5] [µM]
C#Cc1cn([C@@H]2S[C@H](COC(=O)c3ccccc3)[C@@H](O)[C@H]2O)c2ncnc(N)c12 [Compound 7b],++,++,++,+++,3.19,2.86,2.13,2.05,0.57,1.31
C#Cc1cn([C@@H]2S[C@H](COC(=O)c3ccc(Cl)cc3)[C@@H](O)[C@H]2O)c2ncnc(N)c12 [Compound 7c],++,++,++,++,0.27,0.23,0.29,0.23,0.18,0.13
C#Cc1cn([C@@H]2S[C@H](COC(=O)c3ccc(OC)cc3)[C@@H](O)[C@H]2O)c2ncnc(N)c12 [Compound 7d],++,++,++,++,0.35,0.3,0.36,0.33,0.25,0.19
C#Cc1cn([C@@H]2S[C@H](COC(=O)c3c(C)cccc3C)[C@@H](O)[C@H]2O)c2ncnc(N)c12 [Compound 7e],++,++,++,+++,6.47,6.42,4.68,5.59,4.39,4.84
C#Cc1cn([C@@H]2S[C@H](COC(=O)c3ccncc3)[C@@H](O)[C@H]2O)c2ncnc(N)c12 [Compound 7f],++,++,++,+++,0.07,0.038,0.074,0.078,0.05,0.048
N#Cc1cn([C@@H]2S[C@H](COC(=O)c3ccccc3)[C@@H](O)[C@H]2O)c2ncnc(N)c12 [Compound 7g],+++,+++,+++,++,2.58,3.6,1.56,2.96,5.62,3.78
NC(=O)c1cn([C@@H]2S[C@H](COC(=O)c3ccccc3)[C@@H](O)[C@H]2O)c2ncnc(N)c12 [Compound 7h],+++,+++,+++,++,4.78,1.61,6.79,3.56,5.09,5.23
C#Cc1cn([C@@H]2S[C@H](CNC(=O)c3ccc(OC)cc3)[C@@H](O)[C@H]2O)c2ncnc(N)c12 [Compound 8c],++,+++,++,+++,10.1,13.7,10.4,14.8,12.2,12.2
N#Cc1cn([C@@H]2S[C@H](CNC(=O)c3ccccc3)[C@@H](O)[C@H]2O)c2ncnc(N)c12 [Compound 8d],++,++,+++,+++,11.2,8.9,9.34,6.67,13.8,23.7
NC(=O)c1cn([C@@H]2S[C@H](CNC(=O)c3ccccc3)[C@@H](O)[C@H]2O)c2ncnc(N)c12 [Compound 8e],++,++,++,++,45.2,12.5,6.78,4.65,10,9.34
N#Cc1cn([C@@H]2S[C@H](CN=[N+]=[N-])[C@@H](O)[C@H]2O)c2ncnc(N)c12 [Compound 9b],+++,+++,+++,+++,0.23,0.56,0.38,0.45,1.05,0.12
[N-]=[N+]=NC[C@H]1S[C@@H](n2cc(C(N)=O)c3c(N)ncnc32)[C@H](O)[C@@H]1O [Compound 9c],+++,+++,+++,+++,0.24,0.86,0.26,0.36,0.78,0.35
N#Cc1cn([C@@H]2S[C@H](CN)[C@@H](O)[C@H]2O)c2ncnc(N)c12 [Compound 10b],++,+++,+++,++,3.83,2.78,4.75,2.45,1.63,1.47
